We go through 1 compound from patent publication US11060066B2, “Human pluripotent stem cell-based models for predictive developmental neural toxicity” (priority 2014, dated 2021).

Molecules are shown by their SMILES.

The subject of the series is 3D neural constructs. Format: cell-based, human. The procedure:
For toxicity screening experiments, cells were seeded as described above (Examples 1 and 2), but with 65,000 cells/well for ECs+MSCs (also 5:1 ratio) and 15,000 cells/well for microglia/macrophage precursors. Neural constructs were treated with non-toxic or toxic compounds starting at day 14, with media exchanged every 2 days. The following screening protocol was developed by the Thomson lab. Toxic chemicals (FIG. 10E) were chosen based on previous literature support for neurotoxicity (Adams et al., Neurotoxicol Teratol 15(3):193-202 (1993); Cooper et al., Science 280(5369):1603-1607 (1998); Crofton et al., ALTEX-Altern Anim Exp 28(1):9-15 (2011); Eskes et al. (2003); Grandjean et al., Lancet Neurol. 13:330 (2014); Lidsky (2003); Radio et al., Neurotoxicol Teratol 32(1):25-35 (2010); Zurich (2002)). […]
After reverse transcription, RNA is removed by RNaseA and RNaseH treatment. […] The indexed cDNA libraries were pooled and sequenced on an Illumina HiSeq2500 with a single 51 bp read and a 10 bp index read.
RSEM expected read counts for each gene were determined by median normalization (utilizing the median normalization function within EB Seq—version 1.5.3) (Leng et al., Bioinformatics 29(8):1035-1043 (2013)). […]

Take `CCCCCCCC/C=C\CCCCCCCC(=O)O` [oleic acid]: the “SVM prediction as toxic or non-toxic (control)” value is “neurotoxin”. Further, the “SVM probability of being toxic (ranking of blinded compounds)” value (human) is “higher probability of being toxic than L-741,626 and Ouabain”.
